The text below walks through data of publication PMC8623647 (Pharmaceuticals, 2021).

Several values for one entry are separate records, joined by “and”; a condition that tells them apart may be missing. Equal entries are not always repeated. Entries after “also recorded” stand apart in the source; their conditions may differ. Where two headings read alike, the source gives them in different places.

Data set [1] deals with MAO-B. Also noted: method as in PMID 30915862. Particulars: study of Shalaby et al. ref 25; cited from earlier work.
Details of data set [2]: method as in PMID 12667689. Particulars: PAMPA-BBB ref 31; cited from earlier work. A general note: In PAMPA a lipid-coated filter parts donor from acceptor wells.
A short description of data set [3]: BBB permeation by parallel artificial membrane permeability assay (PAMPA). The format is in vitro ADME. The following applies: for Prediction (BBB permeation): PAMPA-BBB class from Pe.
Source text: The CNS bioavailability of the lead candidates was further ascertained by PAMPA method [31].
Data set [4] has as its system Vero cells. As to the kind of experiment: ROS assay (H2O2-induced ROS levels). The format is cell-based, African Green Monkey. Particulars: compound at its IC50 value, exogenous H2O2. As for the experimental part:
ROS increase vulnerability to neuronal damage by causing oxidative damage in the brain during neurodegenerative diseases.
(§1) The cytotoxicities and ROS quenching abilities of the two lead compounds (TM1 and TM8) were evaluated as previously described.
Figure 6 Effects of TM1 (a) and TM8 (b) on H2O2-induced ROS levels. Vero cells (1 × 10^6 cells/mL) were pre-incubated with 100 μg/mL of 30% H2O2 and ROS production was evaluated immediately as described in Section 4.

The nature of data set [5]: Cytotoxicity by MTT assay. It is filed as cell-based, African Green Monkey. Particulars: African green monkey, Vero cells (kidney); Vero cells treated at effective concentrations; read-out: Cells remaining viable. As for the experimental part:
(§2) African Green Monkey kidney cells (VERO cells) were used to evaluate the cytotoxic effects of TM1 and TM8. Cells were incubated with different doses (1 µg/mL to 500 µg/mL) of the two compounds for 48 h, and relative cell viabilities were determined by MTT assay.
as §1
(§3) Figure 4 Effect of TM1 on Vero cell viability. (a) cell viability treated with TM1; (b) dose-response curve; (c) phase contrast microscope images of Vero cells treated with different concentrations of TM1. Cells were treated with TM1 for 48 h and cell viabilities were assessed by MTT assay as described in Section 4.
(§4) Figure 5 Effect of TM8 on Vero cell viability. (a) cell viability treated with TM8; (b) dose-response curve; (c) phase contrast microscope images of Vero cells treated with different concentrations of TM8. Cells were treated with TM8 for 48 h and cell viabilities were assessed by MTT assay as described in Section 4.
(Tetrazolium dyes change colour on reduction, which living cells bring about.)

For data set [6], the system named is Vero cells. As to the kind of experiment: Cytotoxicity by MTT assay. It is filed as cell-based, African Green Monkey. Particulars: 48 h, MTT assay; for IC50: Chlorocebus sabaeus, Vero, read-out: IC50 for Vero cell viability; for Concentrations resulting in high viability (>90%): Vero cells. As for the experimental part: as §2, §1, §3, §4
In another data set the target is T1, recombinant human MAO-A (Homo sapiens, UniProt P21397).
T1 sequence (P21397 1-527): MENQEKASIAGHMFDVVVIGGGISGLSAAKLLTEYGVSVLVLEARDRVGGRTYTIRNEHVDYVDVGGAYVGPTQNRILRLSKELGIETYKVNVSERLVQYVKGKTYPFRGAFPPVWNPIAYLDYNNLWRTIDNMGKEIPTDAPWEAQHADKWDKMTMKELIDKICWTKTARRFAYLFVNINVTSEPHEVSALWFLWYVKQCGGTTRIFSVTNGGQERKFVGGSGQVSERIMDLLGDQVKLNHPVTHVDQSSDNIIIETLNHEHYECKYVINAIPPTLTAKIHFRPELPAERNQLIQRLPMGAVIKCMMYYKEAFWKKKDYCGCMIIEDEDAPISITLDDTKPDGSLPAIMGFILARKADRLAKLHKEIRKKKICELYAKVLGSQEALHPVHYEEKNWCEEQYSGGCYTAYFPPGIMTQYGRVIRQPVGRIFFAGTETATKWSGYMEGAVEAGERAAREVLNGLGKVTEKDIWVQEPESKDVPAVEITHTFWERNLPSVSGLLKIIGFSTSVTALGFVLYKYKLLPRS
Briefly: MAO-A enzyme inhibition (kynuramine substrate, 316 nm).

Data set [7] deals with T2, MAO-B (Homo sapiens, UniProt P27338).
T2 sequence (P27338 1-520): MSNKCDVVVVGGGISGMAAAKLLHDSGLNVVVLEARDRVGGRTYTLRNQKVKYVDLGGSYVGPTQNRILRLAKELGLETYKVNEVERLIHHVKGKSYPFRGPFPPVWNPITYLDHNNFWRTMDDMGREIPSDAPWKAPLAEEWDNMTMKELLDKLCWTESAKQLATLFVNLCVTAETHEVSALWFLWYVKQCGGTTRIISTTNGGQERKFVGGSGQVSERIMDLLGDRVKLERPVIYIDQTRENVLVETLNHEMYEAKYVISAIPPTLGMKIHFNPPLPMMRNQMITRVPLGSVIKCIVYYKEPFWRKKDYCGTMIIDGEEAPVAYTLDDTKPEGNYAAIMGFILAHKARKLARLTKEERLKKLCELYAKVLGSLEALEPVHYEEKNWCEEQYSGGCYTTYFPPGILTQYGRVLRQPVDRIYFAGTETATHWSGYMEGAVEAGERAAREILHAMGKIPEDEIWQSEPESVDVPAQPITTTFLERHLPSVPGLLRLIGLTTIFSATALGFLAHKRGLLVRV
As to the kind of experiment: MAO-B enzyme inhibition (benzylamine substrate, 250 nm).
Procedure: (§5) MAO activity assays were performed using recombinant human MAO-A or MAO-B.
(§6) IC50 values were determined by measuring residual enzyme activities.

Data set [8] deals with T2, MAO-B. Briefly: Kinetics study of MAO-B inhibition (Lineweaver-Burk and secondary plots). It is filed as biochemical. As for the experimental part: Kinetic studies on MAO-B inhibitions were performed on TM1 and TM8.
Data set [9] addresses T2, MAO-B. As to the kind of experiment: Reversibility of MAO-B inhibition by dialysis. The format is biochemical. As for the experimental part:
The reversibilities of MAO-B inhibitions by TM1 and TM8 were assessed by dialysis. […] Reversibility patterns were determined by comparing the activities of dialyzed (AD) and undialyzed (AU) samples.

Procedure for recombinant human MAO-A: as §5, §6

As to `CSc1ccc(C(=O)/C=C/c2cccc(Br)c2)cc1` [(E)-3-(3-bromophenyl)-1-(4-(methylthio)phenyl)prop-2-en-1-one], the half-inhibitory concentration (IC50) in the data set with MAO-B [1] was 190 ± 10 nM.
Turning to `NCCc1ccc(O)c(O)c1` [Dopamine, reference compound], the “Bibliography Pe” value in data set [2] was 0.2 ×10⁻⁶ cm/s. Moreover, the “Prediction (BBB permeation)” value in data set [3] is “CNS− (CNS− (low BBB permeation predicted): Pe (10^−6 cm·s^−1) < 2.00)”.
Regarding `CN1C(C(=O)Nc2ccccn2)=C(O)c2ccccc2S1(=O)=O` [Piroxicam, reference compound], the “Bibliography Pe” value in data set [2] is 2.5 ×10⁻⁶ cm/s. Besides, the “Experimental Pe” value in [3] (PAMPA-BBB) is 2.44 ± 0.26 ×10^−6 cm·s^−1. The “Prediction (BBB permeation)” value in [3] was “CNS± (CNS± (BBB permeation uncertain): Pe (10^−6 cm·s^−1) from 2.00 to 4.00)”.
In the case of `CSc1ccc(C(=O)/C=C/c2ccccc2)cc1` [TM1], in the data set with Vero cells [4], the “Effect on H2O2-induced intracellular ROS levels” value is on record as “significantly reduced reactive oxygen species (ROS) levels; also recorded: appreciably lower ROS levels; also recorded: mitigated H2O2-induced increases in ROS levels”. Besides, the viability at 48 h in data set [5] was over 90%. Also, the 50% inhibitory concentration (IC50) came to 948000 nM with Vero cells [6] (converted from µg/mL), 242 µg/mL in the data set on Vero cells [6], 13800 ± 50 nM on recombinant human MAO-A and 17 ± 3 nM against MAO-B [7]. Moreover, the “Concentrations resulting in high viability (>90%)” value in the data set with Vero cells [6] is given as under 250 µg/mL; in the data set on Vero cells [6] (converted from µg/mL) it was under 983.1 µM. The results for the remaining activity at 10 µM at recombinant human MAO-A (read-out: Residual Activity at 10 µM (%) MAO-A) and at MAO-B [7] (read-out: Residual Activity at 10 µM (%) MAO-B) were 62.6 ± 9.7% and 13.2 ± 0.7%, respectively. Besides, the “Blood-brain barrier permeability in words” value in data set [3] (PAMPA) was “high blood-brain barrier permeabilities”. Moreover, the “Prediction (BBB permeation)” value in data set [3] is on record as “CNS+ (CNS+ (high BBB permeation predicted): Pe (10^−6 cm·s^−1) > 4.00)”. Besides, the Papp in data set [3] (PAMPA-BBB, read-out: Experimental Pe) amounted to 15.5 ± 0.33 ×10⁻⁶ cm/s. Further, the “SI (hMAO-B selectivity index)” value at MAO-B [7] (IC50(hMAO-A) divided by IC50(hMAO-B)) was 812 and 811.8. Moreover, the “Times more potent than pargyline (MAO-B)” value on MAO-B [7] (ratio of MAO-B IC50 values) was found to be 1.6 times. Moreover, the “Times more potent than the reference drug lazabemide (MAO-B)” value at MAO-B [7] (ratio of MAO-B IC50 values) is listed as 3.7 times. The “Inhibitor type for MAO-B” value on MAO-B [8] (Lineweaver-Burk plots) is on record as “competitively inhibited MAO-B; also recorded: competitive”. At MAO-B [8] (from secondary plots of slopes vs. inhibitor concentrations), this compound yielded an inhibition constant (Ki) of 11 ± 1 nM. The “MAO-B activity of dialyzed sample (AD)” value at MAO-B [9] (after dialysis, test compounds […], lazabemide 0.20 µM, pargyline 0.30 µM) was found to be 68.1%. In addition, the “Reversibility of MAO-B inhibition” value at MAO-B [9] (dialysis-based method) is recorded as “reversible MAO-B inhibitors”. Further, the “MAO-B activity of undialyzed sample (AU)” value on MAO-B [9] (preincubated 30 min, test compounds […], lazabemide 0.20 µM, pargyline 0.30 µM) is reported as 24.9%.

Broadly, the IC50 is the concentration at which inhibition is half-maximal. In general, Ki refers to the equilibrium dissociation constant of an inhibitor or competing ligand from its target. Low values mean tighter binding, high ones weaker binding.
